Reference: US5677346A, “Treating urinary incontinence using (S)-desethyloxybutynin” (Sepracor, Inc., priority 1995, dated 1997)

Legend:
[1] = biological target: T1, human recombinant M2 muscarinic receptor (Homo sapiens, UniProt P08172); experiment: biochemical; format: binding; conditions: for inhibition at 10 µM: read-out: percent inhibition of specific radioligand binding M2H 10^-5 M; for inhibition at 0.1 µM: read-out: percent inhibition of specific radioligand binding M2H 10^-7 M
T1 construct: made in house; host or cells: SF9 insect cells infected with baculovirus (membranes)
T1 sequence (P08172 1-466): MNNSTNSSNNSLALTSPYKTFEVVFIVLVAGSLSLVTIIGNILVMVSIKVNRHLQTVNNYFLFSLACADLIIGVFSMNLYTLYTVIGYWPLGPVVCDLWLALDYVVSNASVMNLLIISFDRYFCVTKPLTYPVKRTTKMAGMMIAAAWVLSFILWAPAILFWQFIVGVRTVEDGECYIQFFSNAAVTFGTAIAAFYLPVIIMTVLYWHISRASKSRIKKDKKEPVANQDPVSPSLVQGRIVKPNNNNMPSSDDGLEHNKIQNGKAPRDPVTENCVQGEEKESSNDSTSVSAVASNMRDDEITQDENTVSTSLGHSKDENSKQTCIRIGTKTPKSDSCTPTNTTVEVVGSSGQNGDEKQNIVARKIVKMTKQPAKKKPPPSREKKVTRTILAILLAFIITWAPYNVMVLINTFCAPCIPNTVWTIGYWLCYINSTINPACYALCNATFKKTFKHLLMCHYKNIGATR

[2] = biological target: T2, human recombinant M4 muscarinic receptor (Homo sapiens, UniProt P08173); experiment: biochemical; format: binding; conditions: for inhibition at 10 µM: read-out: percent inhibition of specific radioligand binding M4H 10^-5 M; for inhibition at 0.1 µM: read-out: percent inhibition of specific radioligand binding M4H 10^-7 M; for inhibition at 0.001 µM: read-out: percent inhibition of specific radioligand binding M4H 10^-9 M
T2 construct: made in house; host or cells: SF9 insect cells infected with baculovirus (membranes)
T2 sequence (P08173 1-479): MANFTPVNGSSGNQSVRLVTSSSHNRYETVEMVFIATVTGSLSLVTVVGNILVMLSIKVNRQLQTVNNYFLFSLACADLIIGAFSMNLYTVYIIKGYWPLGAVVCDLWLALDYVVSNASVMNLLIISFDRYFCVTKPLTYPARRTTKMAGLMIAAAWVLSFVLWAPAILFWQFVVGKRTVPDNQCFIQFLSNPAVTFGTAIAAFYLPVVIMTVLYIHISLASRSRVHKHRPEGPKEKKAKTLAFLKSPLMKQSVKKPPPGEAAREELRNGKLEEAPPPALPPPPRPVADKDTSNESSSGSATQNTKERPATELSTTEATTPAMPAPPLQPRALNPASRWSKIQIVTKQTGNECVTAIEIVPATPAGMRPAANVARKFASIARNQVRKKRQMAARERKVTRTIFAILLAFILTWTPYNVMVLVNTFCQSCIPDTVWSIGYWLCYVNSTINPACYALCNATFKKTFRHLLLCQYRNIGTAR

[3] = system: Ca channel (T + L, diltiazem site); format: binding, rat; conditions: for percent inhibition of specific radioligand binding, Calcium (diltiazem): Table 8, 10^-5 M
[4] = system: Ca channel (T + L, verapamil site); experiment: Binding to calcium channel, verapamil site ([3H]D 888, rat cerebral cortex); conditions: for percent inhibition of specific radioligand binding, Calcium (verapamil): Table 8, 10^-5 M
[5] = biological target: T3, bladder muscarinic receptors (guinea pig bladder smooth muscle strips) (Cavia porcellus, UniProt H0W1Z3); experiment: Carbachol-induced contraction of isolated bladder strips (antimuscarinic activity); conditions: for Slope (Schild regression): Table 9, mean ± SE
T3 construct: isolated strips of guinea pig bladder smooth muscle; from tissue; host or cells: urinary bladder strips of male Hartley guinea pigs

[6] = system: guinea pig bladder smooth muscle strips; experiment: Potassium-induced contraction of isolated bladder strips (spasmolytic activity)
[7] = system: human muscarinic receptor subtypes M1-M4; experiment: Binding to human muscarinic receptor subtypes M1-M4, overall result
[8] = system: calcium channel (diltiazem and verapamil sites); experiment: Binding at calcium channels, overall result; design: species or system rat; conditions: 10^-5 M
[9] = Table 10, 137.7 mM K+, 60 min exposure, n = 3, * significantly different from untreated (< 0.01)

T3 sequence (H0W1Z3 1-590): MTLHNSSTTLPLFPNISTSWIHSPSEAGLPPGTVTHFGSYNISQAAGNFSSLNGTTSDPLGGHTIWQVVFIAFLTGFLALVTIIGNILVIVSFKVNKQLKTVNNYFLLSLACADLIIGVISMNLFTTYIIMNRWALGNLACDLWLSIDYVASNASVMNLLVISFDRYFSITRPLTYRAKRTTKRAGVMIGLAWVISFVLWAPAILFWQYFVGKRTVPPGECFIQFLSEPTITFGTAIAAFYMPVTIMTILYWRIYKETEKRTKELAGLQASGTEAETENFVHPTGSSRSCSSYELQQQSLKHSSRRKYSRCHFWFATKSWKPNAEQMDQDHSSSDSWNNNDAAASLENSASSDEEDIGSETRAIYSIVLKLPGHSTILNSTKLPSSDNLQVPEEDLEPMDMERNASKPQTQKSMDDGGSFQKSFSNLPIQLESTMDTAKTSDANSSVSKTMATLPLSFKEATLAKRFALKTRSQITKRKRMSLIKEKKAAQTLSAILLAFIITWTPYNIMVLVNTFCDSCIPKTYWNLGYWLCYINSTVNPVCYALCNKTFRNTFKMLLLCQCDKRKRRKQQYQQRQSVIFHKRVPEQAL

| Structure (SMILES) | IC50 [1] [nM] | inhibition at 0.1 µM [1] [%] | inhibition at 10 µM [2] [%] | inhibition at 0.1 µM [2] [%] | percent inhibition of specific radioligand binding, Calcium (diltiazem) [3] [%] | percent inhibition of specific radioligand binding, Calcium (verapamil) [4] [%] | Kb [5] [nM] | Slope (Schild regression) [5] | Mean % pretreatment ± SE (magnitude of contraction induced by 137.7 mM K+ after exposure to compound / before) [6, 9] [%] | further results |
| --- | --- | --- | --- | --- | --- | --- | --- | --- | --- | --- |
| CCNCC#CCOC(=O)[C@](O)(c1ccccc1)C1CCCCC1.Cl [R-DEO, 4-(Ethylamino)-2-butynyl (R)-α-cyclohexyl-α-hydroxybenzeneacetate hydrochloride salt] | 14.7 | 97 | 99 | 100 | 86 | 96 | 0.912 | 1.16 ± 0.11 | 36 ± 5 | inhibition at 10 µM [1]: 102%; inhibition at 0.001 µM ([1]; read-out: percent inhibition of specific radioligand binding M2H 10^-9 M): 21%; inhibition at 0.001 µM [2]: 58% |
| CCN(CC)CC#CCOC(=O)[C@](O)(c1ccccc1)C1CCCCC1 [R-OXY, reference compound] | – | – | – | – | – | – | – | – | 32 ± 8 | – |
| CCNCC#CCOC(=O)C(O)(c1ccccc1)C1CCCCC1.Cl (racemic) [RS-DEO, 4-(Ethylamino)-2-butynyl α-cyclohexyl-α-hydroxybenzeneacetate hydrochloride salt] | 7 | 94 | 95 | 99 | 88 | 89 | 2.82 | 1.35 ± 0.25 | 47 ± 8 | inhibition at 10 µM [1]: 99%; inhibition at 0.001 µM [2]: 34% |
| CCN(CC)CC#CCOC(=O)[C@@](O)(c1ccccc1)C1CCCCC1 [S-OXY, 4-(diethylamino)-2-butynyl α-cyclohexyl-α-hydroxybenzeneacetate] | – | – | – | – | – | – | – | – | – | Mean % pretreatment ± SE (magnitude of contraction induced by 137.7 mM K+ after exposure to compound / before) ([6]; guinea pig, bladder strips, 60 min): 26 ± 9% |
| CCN(CC)CC#CCOC(=O)C(O)(c1ccccc1)C1CCCCC1 (racemic) [RS-OXY, 4-(diethylamino)-2-butynyl α-cyclohexyl-α-hydroxybenzeneacetate, reference compound] | – | – | – | – | – | – | – | – | 20 ± 1 | – |
| COc1ccc([C@@H]2Sc3ccccc3N(CCN(C)C)C(=O)[C@@H]2OC(C)=O)cc1 [diltiazem, reference compound] | – | – | – | – | – | – | – | – | – | IC50 ([3]; Table 5, reference compound, 8 concentrations, read-out: Ref. Compound IC50, Calcium (diltiazem)): 55.8 nM |
| COc1ccc(CCN(C)CCCC(C#N)(c2cc(OC)c(OC)c(OC)c2)C(C)C)cc1OC (racemic) [D600, reference compound] | – | – | – | – | – | – | – | – | – | IC50 ([4]; Table 5, reference compound, 8 concentrations, read-out: Ref. Compound IC50, Calcium (verapamil)): 36.4 nM |
| CCNCC#CCOC(=O)[C@@](O)(c1ccccc1)C1CCCCC1.Cl [S-DEO, 4-(Ethylamino)-2-butynyl (S)-α-cyclohexyl-α-hydroxybenzeneacetate hydrochloride salt] | 177 | 36 | 99 | 43 | 72 | 76 | 49 | 0.87 ± 0.11 | – | affinity for muscarinic receptor subtypes (in words) [7]: less affinity for muscarinic receptor subtypes than either R- or racemic DEO; calcium entry blocking activity (in words) [8]: calcium entry blocking activity similar to that of R- and racemic DEO; antagonism of bladder muscarinic receptors (in words) ([5]; carbachol-induced contraction): less potent antagonists of bladder muscarinic receptors than are R- and racemic OXY and R- and racemic DEO |
